Laboratory results published in patent US20240174723A1, “STAPLED ANTIMICROBIAL PEPTIDES (STAMPS) AND USES THEREOF” (Lytica Therapeutics, Inc., priority 2021, published 2024).
Values after ≈ are worked out from the molar mass of the structure shown. Positions of bridges follow the written chain, without caps; N, C: chain ends. Non-standard residues stand in square brackets, D forms with d. Residues, ends and D or L forms follow the SMILES beside them. Phe(4-tBu) = CC(C)(C)c1ccc(C[C@H](N)C(=O)O)cc1; PEG4 = NCCOCCOCCOCCOCCC(=O)O; S5 = C=CCCC[C@](C)(N)C(=O)O; Orn = NCCC[C@H](N)C(=O)O; Dap = NC[C@H](N)C(=O)O

Legend:
in vitro [1] = format: cell-based; conditions: human, Inhibitory Concentration at 50% Cytotoxicity (IC50) Human Liver Cells (HepG2)
How it was run: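 HepG2 cells in EMEM with 10% FBS, allowed 4 h to attach, then exposed to serial dilutions of StAMPs (from a 5 mg/mL water stock) or vehicle. After 48 h at 37 °C, viability read by CellTiter-Glo luminescence.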

in vitro [2] = format: cell-based; conditions: human
How it was run: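 RPTEC or HepG2 cells plated overnight, given fresh media, then serial StAMP dilutions (from 5 mg/mL water stock) or vehicle at 37 °C. Cytotoxicity read as LDH release into media, absorbance 490 nm; renal toxicity after 90 min, liver toxicity after 48 h incubation.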

K. pneumoniae = format: cell-based, Klebsiella pneumoniae
How it was run: (§1)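 Read-out is visible growth: the MIC is the minimum peptide concentration showing none after 20-24 h at 37 °C. Peptides were serially diluted from water stocks and mixed with log-phase bacteria (final 5×10^5 CFU/ml) in Mueller-Hinton or cation-adjusted Mueller-Hinton broth.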

A. baumannii = format: cell-based, Acinetobacter baumannii
How it was run: as §1

P. aeruginosa = format: cell-based, Pseudomonas aeruginosa
How it was run: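 Broth microdilution adapted from CLSI in MHB or cation-adjusted MHB; log-phase P. aeruginosa at 5×10^5 CFU/ml final with serially diluted stapled peptides. Incubated 20-24 h at 37 °C; MIC is the lowest concentration without visible growth.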

S. aureus = format: cell-based, Staphylococcus aureus
How it was run: as §1

E. coli = format: cell-based, Escherichia coli
How it was run: as §1

Compound | IC50 at 48 hours (in vitro [1]) | IC50 at 90 min (in vitro [2]) | Minimum Inhibitory Concentration (MIC) K. pneumoniae (K. pneumoniae) | Minimum Inhibitory Concentration (MIC) A. baumannii (A. baumannii) | Minimum Inhibitory Concentration (MIC) P. aeruginosa (P. aeruginosa) | Minimum Inhibitory Concentration (MIC) S. aureus (S. aureus) | Minimum Inhibitory Concentration (MIC) E. coli (E. coli)
CC(C)C[C@@H]1NC(=O)[C@H](C(C)C)NC(=O)[C@@](C)(NC(=O)[C@H](C)NC(=O)[C@H](CCCCN)NC(=O)CNC(=O)[C@H](Cc2ccccc2)NC(=O)[C@H](CCCCN)NC(=O)[C@H](CCCCN)NC(=O)[C@H](CCCCN)NC(=O)[C@H](CO)NC(=O)[C@H](Cc2c[nH]cn2)NC(=O)[C@]2(C)CCCC=CCCC[C@](C)(NC(=O)CN)C(=O)NCC(=O)N[C@@H](CCCCN)C(=O)N[C@@H](Cc3ccccc3)C(=O)N2)CCCC=CCCC[C@@](C)(C(=O)N[C@@H](C)C(=O)N[C@@H](CCCCN)C(=O)N[C@@H](CCCCN)C(N)=O)NC(=O)[C@H](CCC(=O)O)NC1=O [compound 12] (H-G[S5]GKF[S5]HSKKKFGKA[S5]VLE[S5]AKK-NH2; staple 2-6, 16-20) | ~200 mg/L (≈ 77.3 µM) | ~200 mg/L (≈ 77.3 µM) | 4 mg/L | 2 mg/L | 4 mg/L | >64 mg/L | 2 mg/L
CC(C)[C@@H]1NC(=O)[C@@](C)(NC(=O)[C@H](C)NC(=O)[C@H](CN)NC(=O)CNC(=O)[C@H](Cc2ccccc2)NC(=O)[C@H](CN)NC(=O)[C@H](CN)NC(=O)[C@H](CN)NC(=O)[C@H](CN)NC(=O)[C@H](CN)NC(=O)[C@]2(C)CCCC=CCCC[C@](C)(NC(=O)CN)C(=O)NCC(=O)N[C@@H](CN)C(=O)N[C@@H](Cc3ccccc3)C(=O)N2)CCCC=CCCC[C@@](C)(C(=O)N[C@@H](C)C(=O)N[C@@H](CCCCN)C(=O)N[C@@H](CCCCN)C(N)=O)NC(=O)[C@H](CCC(=O)O)NC(=O)CNC1=O [compound 78] (H-G[S5]G[Dap]F[S5][Dap][Dap][Dap][Dap][Dap]FG[Dap]A[S5]VGE[S5]AKK-NH2; staple 2-6, 16-20) | > 200 mg/L | > 200 mg/L | 16 mg/L | 8 mg/L | 2 mg/L | >64 mg/L | 16 mg/L
CC(C)[C@@H]1NC(=O)[C@@](C)(NC(=O)[C@H](C)NC(=O)[C@H](CCCCN)NC(=O)CNC(=O)[C@H](Cc2ccccc2)NC(=O)[C@H](CCCCN)NC(=O)[C@H](CCCCN)NC(=O)[C@H](CCCCN)NC(=O)[C@H](CCCCN)NC(=O)[C@H](CCCCN)NC(=O)[C@]2(C)CCCC=CCCC[C@](C)(NC(=O)CN)C(=O)NCC(=O)N[C@@H](CCCCN)C(=O)N[C@@H](Cc3ccccc3)C(=O)N2)CCCC=CCCC[C@@](C)(C(=O)N[C@@H](C)C(=O)N[C@@H](CCCCN)C(=O)N[C@@H](CCCCN)C(=O)NCCOCCOCCOCCOCCC(N)=O)NC(=O)[C@H](CCC(=O)O)NC(=O)CNC1=O [compound 74] (H-G[S5]GKF[S5]KKKKKFGKA[S5]VGE[S5]AKK[PEG4]-NH2; staple 2-6, 16-20) | 430 mg/L (≈ 153 µM) | > 200 mg/L | 4 mg/L | 2 mg/L | 4 mg/L | >64 mg/L | 2 mg/L
CC(C)[C@@H]1NC(=O)[C@@](C)(NC(=O)[C@H](C)NC(=O)[C@H](CCCN)NC(=O)CNC(=O)[C@H](Cc2ccccc2)NC(=O)[C@H](CCCN)NC(=O)[C@H](CCCN)NC(=O)[C@H](CCCN)NC(=O)[C@H](CCCN)NC(=O)[C@H](CCCN)NC(=O)[C@]2(C)CCCC=CCCC[C@](C)(NC(=O)CN)C(=O)NCC(=O)N[C@@H](CCCN)C(=O)N[C@@H](Cc3ccccc3)C(=O)N2)CCCC=CCCC[C@@](C)(C(=O)N[C@@H](C)C(=O)N[C@@H](CCCN)C(=O)N[C@@H](CCCN)C(N)=O)NC(=O)[C@H](CCC(=O)O)NC(=O)CNC1=O [compound 24] (H-G[S5]G[Orn]F[S5][Orn][Orn][Orn][Orn][Orn]FG[Orn]A[S5]VGE[S5]A[Orn][Orn]-NH2; staple 2-6, 16-20) | 44 mg/L (≈ 18 µM) | 100 mg/L (≈ 41 µM) | 32 mg/L | 2 mg/L | 2 mg/L | 64 mg/L | 4 mg/L
CC(C)[C@@H]1NC(=O)[C@@](C)(NC(=O)[C@H](C)NC(=O)[C@H](CCCCN)NC(=O)CNC(=O)[C@H](Cc2ccccc2)NC(=O)[C@H](CCCCN)NC(=O)[C@H](CCCCN)NC(=O)[C@H](CCCCN)NC(=O)[C@H](CCCCN)NC(=O)[C@H](CCCCN)NC(=O)[C@]2(C)CCCC=CCCC[C@](C)(NC(=O)CN)C(=O)NCC(=O)N[C@@H](CCCCN)C(=O)N[C@@H](Cc3ccccc3)C(=O)N2)CCCC=CCCC[C@@](C)(C(=O)N[C@@H](C)C(=O)N[C@@H](CCCCN)C(=O)N[C@@H](CCCCN)C(=O)NCC(=O)NCC(=O)N[C@@H](CCC(=O)O)C(N)=O)NC(=O)[C@H](CCC(=O)O)NC(=O)[C@H](Cc2ccc(C(C)(C)C)cc2)NC1=O [compound 36] (H-G[S5]GKF[S5]KKKKKFGKA[S5]V[Phe(4-tBu)]E[S5]AKKGGE-NH2; staple 2-6, 16-20) | > 200 mg/L | 96 mg/L (≈ 32.5 µM) | 2 mg/L | 2 mg/L | 4 mg/L | 64 mg/L | 2 mg/L
CC(C)[C@@H]1NC(=O)[C@@](C)(NC(=O)[C@H](C)NC(=O)[C@H](CCCCN)NC(=O)CNC(=O)[C@H](Cc2ccccc2)NC(=O)[C@H](CCCCN)NC(=O)[C@H](CCCCN)NC(=O)[C@H](CN)NC(=O)[C@H](CCCCN)NC(=O)[C@H](CCCCN)NC(=O)[C@]2(C)CCCC=CCCC[C@](C)(NC(=O)CN)C(=O)NCC(=O)N[C@@H](CCCCN)C(=O)N[C@@H](Cc3ccccc3)C(=O)N2)CCCC=CCCC[C@@](C)(C(=O)N[C@@H](C)C(=O)N[C@@H](CCCCN)C(=O)N[C@@H](CCCCN)C(N)=O)NC(=O)[C@H](CCC(=O)O)NC(=O)CNC1=O [compound 40] (H-G[S5]GKF[S5]KK[Dap]KKFGKA[S5]VGE[S5]AKK-NH2; staple 2-6, 16-20) | 203 mg/L (≈ 80.5 µM) | 200 mg/L (≈ 79.3 µM) | 8 mg/L | 2 mg/L | 4 mg/L | >64 mg/L | 2 mg/L
CC(C)[C@@H]1NC(=O)[C@H](C(C)C)NC(=O)[C@@](C)(NC(=O)[C@H](C)NC(=O)[C@H](CCCCN)NC(=O)CNC(=O)[C@H](Cc2ccccc2)NC(=O)[C@H](CCCCN)NC(=O)[C@H](CCCCN)NC(=O)[C@H](CCCCN)NC(=O)[C@H](CO)NC(=O)[C@H](Cc2c[nH]cn2)NC(=O)[C@]2(C)CCCC=CCCC[C@](C)(NC(=O)CN)C(=O)NCC(=O)N[C@@H](CCCCN)C(=O)N[C@@H](Cc3ccccc3)C(=O)N2)CCCC=CCCC[C@@](C)(C(=O)N[C@@H](C)C(=O)N[C@@H](CCCCN)C(=O)N[C@@H](CCCCN)C(N)=O)NC(=O)[C@H](CCC(=O)O)NC1=O [compound 11] (H-G[S5]GKF[S5]HSKKKFGKA[S5]VVE[S5]AKK-NH2; staple 2-6, 16-20) | 227 mg/L (≈ 88.2 µM) | 203 mg/L (≈ 78.9 µM) | 7 mg/L | 2 mg/L | 6 mg/L | >64 mg/L | 2 mg/L
CC(C)[C@@H]1NC(=O)[C@@](C)(NC(=O)[C@H](C)NC(=O)[C@H](CCCCN)NC(=O)CNC(=O)[C@H](Cc2ccccc2)NC(=O)[C@H](CCCCN)NC(=O)[C@H](CCCCN)NC(=O)[C@H](CCCCN)NC(=O)[C@H](CO)NC(=O)[C@H](Cc2c[nH]cn2)NC(=O)[C@]2(C)CCCC=CCCC[C@](C)(NC(=O)CN)C(=O)N[C@@H](Cc3c[nH]c4ccccc34)C(=O)N[C@@H](CCCCN)C(=O)N[C@@H](Cc3ccccc3)C(=O)N2)CCCC=CCCC[C@@](C)(C(=O)N[C@@H](C)C(=O)N[C@@H](CCCCN)C(=O)N[C@@H](CCCCN)C(N)=O)NC(=O)[C@H](CCC(=O)O)NC(=O)CNC1=O [compound 57] (H-G[S5]WKF[S5]HSKKKFGKA[S5]VGE[S5]AKK-NH2; staple 2-6, 16-20) | 70 mg/L (≈ 26.3 µM) | 35 mg/L (≈ 13.2 µM) | 16 mg/L | 4 mg/L | 8 mg/L | 32 mg/L | 4 mg/L
